Laboratory results reported in patent US20230085307A1, “PYRIDAZINONE COMPOUND AND HERBICIDE” (NISSAN CHEMICAL CORPORATION, priority 2019, published 2023).

Legend:
[1] = system: barnyard grass; assay: Test Example 3: herbicidal effect by foliage application, Wagner pot (Table 18, symbol H); format: in vivo, barnyard grass (Echinochloa crus-galli); conditions: 320 g/ha
Procedure, shortened: (§1)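 Plants were sown in alluvial soil held under 0.1–0.5 cm standing water and grown 14 days in a greenhouse at 25–30 °C. An emulsifiable formulation, water-diluted to the set dose, was then sprayed onto the foliage, and effects were scored three weeks later using previously defined criteria.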

[2] = system: oval-leafed pondweed; assay: Test Example 1: herbicidal activity, application before weed generation under submerged conditions (Table 16, symbol C); format: in vivo, oval-leafed pondweed (Monochoria vaginalis); conditions: 320 g/ha applied herbicide
Procedure, shortened: (§2)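 Alluvial soil was flooded to 4 cm depth, weed seeds were sown mixed and 2.5-leaf rice seedlings were transplanted. On sowing day, the compound's emulsion, diluted in water to a set dose, was applied to the water surface. Plants grew at 25–30 °C and were scored 0–5 after three weeks.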

[3] = system: blackgrass; assay: Test Example 4: herbicidal effect by soil treatment (Table 19, symbol J); format: in vivo, blackgrass (Alopecurus myosuroides)
Procedure, shortened: (§3)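 In this soil treatment, the formulated compound reached the seeds only through the soil: seeds were buried about 1.5 cm deep in sterilized diluvial soil, then the diluted emulsion was sprayed over the surface. After three weeks at 25° C. to 30° C. in a greenhouse, effects were graded on criteria from an earlier test.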

[4] = system: wild oat; assay: Test Example 5: herbicidal effect by foliage application, plastic box (Table 20, symbol I); format: in vivo, wild oat (Avena fatua); conditions: foliage application, three weeks after application
Procedure, shortened: (§4)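 Plants were sown into sterilized diluvial soil under about 1.5 cm cover and kept in a greenhouse at 25° C. to 30° C. Fourteen days on, foliage received an even spray of the diluted emulsion. Herbicidal or crop effect was judged three weeks afterwards.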

[5] = system: lambsquarters; assay: Test Example 4: herbicidal effect by soil treatment (Table 19, symbol O); format: in vivo, lambsquarters (Chenopodium album)
Procedure, shortened: as §3

[6] = system: wild oat; assay: Test Example 4: herbicidal effect by soil treatment (Table 19, symbol I); format: in vivo, wild oat (Avena fatua)
Procedure, shortened: as §3

[7] = system: blackgrass; assay: Test Example 5: herbicidal effect by foliage application, plastic box (Table 20, symbol J); format: in vivo, blackgrass (Alopecurus myosuroides); conditions: foliage application, three weeks after application
Procedure, shortened: as §4

[8] = system: Japanese bulrush; assay: Test Example 1: herbicidal activity, application before weed generation under submerged conditions (Table 16, symbol B); format: in vivo, Japanese bulrush (Schoenoplectus juncoides); conditions: 320 g/ha applied herbicide
Procedure, shortened: as §2

[9] = system: lambsquarters; assay: Test Example 5: herbicidal effect by foliage application, plastic box (Table 20, symbol O); format: in vivo, lambsquarters (Chenopodium album); conditions: foliage application, three weeks after application
Procedure, shortened: as §4

[10] = system: southern crabgrass; assay: Test Example 4: herbicidal effect by soil treatment (Table 19, symbol F); format: in vivo, southern crabgrass (Digitaria ciliaris)
Procedure, shortened: as §3

[11] = system: windgrass; assay: Test Example 4: herbicidal effect by soil treatment (Table 19, symbol L); format: in vivo, windgrass (Apera spica-venti)
Procedure, shortened: as §3

[12] = system: Italian ryegrass; assay: Test Example 5: herbicidal effect by foliage application, plastic box (Table 20, symbol K); format: in vivo, Italian ryegrass (Lolium multiflorum); conditions: foliage application, three weeks after application
Procedure, shortened: as §4

[13] = system: green foxtail; assay: Test Example 5: herbicidal effect by foliage application, plastic box (Table 20, symbol G); format: in vivo, green foxtail (Setaria viridis); conditions: foliage application, three weeks after application
Procedure, shortened: as §4

[14] = system: redroot pigweed; assay: Test Example 4: herbicidal effect by soil treatment (Table 19, symbol N); format: in vivo, redroot pigweed (Amaranthus retroflexus)
Procedure, shortened: as §3

[15] = system: late watergrass; assay: Test Example 1: herbicidal activity, application before weed generation under submerged conditions (Table 16, symbol A); format: in vivo, late watergrass (Echinochloa oryzicola); conditions: 320 g/ha applied herbicide
Procedure, shortened: as §2

[16] = system: barnyard grass; assay: Test Example 4: herbicidal effect by soil treatment (Table 19, symbol H); format: in vivo, barnyard grass (Echinochloa crus-galli)
Procedure, shortened: as §3

[17] = system: velvetleaf; assay: Test Example 5: herbicidal effect by foliage application, plastic box (Table 20, symbol M); format: in vivo, velvetleaf (Abutilon theophrasti); conditions: foliage application, three weeks after application
Procedure, shortened: as §4

[18] = system: persian speedwell; assay: Test Example 4: herbicidal effect by soil treatment (Table 19, symbol R); format: in vivo, Persian speedwell (Veronica persica)
Procedure, shortened: as §3

[19] = system: chickweed; assay: Test Example 5: herbicidal effect by foliage application, plastic box (Table 20, symbol P); format: in vivo, common chickweed (Stellaria media); conditions: foliage application, three weeks after application
Procedure, shortened: as §4

[20] = system: barnyard grass; assay: Test Example 5: herbicidal effect by foliage application, plastic box (Table 20, symbol H); format: in vivo, barnyard grass (Echinochloa crus-galli); conditions: foliage application, three weeks after application
Procedure, shortened: as §4

[21] = system: rice flat sedge; assay: Test Example 3: herbicidal effect by foliage application, Wagner pot (Table 18, symbol E); format: in vivo, rice flat sedge (Cyperus iria); conditions: 320 g/ha
Procedure, shortened: as §1

[22] = system: persian speedwell; assay: Test Example 5: herbicidal effect by foliage application, plastic box (Table 20, symbol R); format: in vivo, Persian speedwell (Veronica persica); conditions: foliage application, three weeks after application
Procedure, shortened: as §4

[23] = system: Chinese sprangletop; assay: Test Example 3: herbicidal effect by foliage application, Wagner pot (Table 18, symbol D); format: in vivo, chinese sprangletop (Leptochloa chinensis); conditions: 320 g/ha
Procedure, shortened: as §1

[24] = system: southern crabgrass; assay: Test Example 5: herbicidal effect by foliage application, plastic box (Table 20, symbol F); format: in vivo, southern crabgrass (Digitaria ciliaris); conditions: foliage application, three weeks after application
Procedure, shortened: as §4

[25] = system: Italian ryegrass; assay: Test Example 4: herbicidal effect by soil treatment (Table 19, symbol K); format: in vivo, Italian ryegrass (Lolium multiflorum)
Procedure, shortened: as §3

[26] = system: chickweed; assay: Test Example 4: herbicidal effect by soil treatment (Table 19, symbol P); format: in vivo, common chickweed (Stellaria media)
Procedure, shortened: as §3

[27] = system: redroot pigweed; assay: Test Example 5: herbicidal effect by foliage application, plastic box (Table 20, symbol N); format: in vivo, redroot pigweed (Amaranthus retroflexus); conditions: foliage application, three weeks after application
Procedure, shortened: as §4

[28] = system: green foxtail; assay: Test Example 4: herbicidal effect by soil treatment (Table 19, symbol G); format: in vivo, green foxtail (Setaria viridis)
Procedure, shortened: as §3

[29] = system: windgrass; assay: Test Example 5: herbicidal effect by foliage application, plastic box (Table 20, symbol L); format: in vivo, windgrass (Apera spica-venti); conditions: foliage application, three weeks after application
Procedure, shortened: as §4

[30] = system: velvetleaf; assay: Test Example 4: herbicidal effect by soil treatment (Table 19, symbol M); format: in vivo, velvetleaf (Abutilon theophrasti)
Procedure, shortened: as §3

[31] = amount of applied herbicide 320 g/ha

CCCC(=O)Oc1c(C)nn(C)c(=O)c1-c1c(-c2cc(F)ccc2OC)sc2ccccc12 [1-059]
herbicidal effect on H (barnyard grass), rating 0-5 [1]: 3 (Herbicidal rate of 40% or more and less than 70%)
Herbicidal effect on C: oval-leafed pondweed (grade 0-5) [2]: 1 (Herbicidal rate of 5% or more and less than 20%)
herbicidal effect rating, J: blackgrass [3, 31]: 3 (Herbicidal rate of 40% or more and less than 70%)
herbicidal effect grade, I: wild oat ([4]; 320 g/ha): 2 (Herbicidal rate of 20% or more and less than 40%)
herbicidal effect rating, O: lambsquarters [5, 31]: 3 (Herbicidal rate of 40% or more and less than 70%)
herbicidal effect rating, I: wild oat [6, 31]: 0 (Herbicidal rate of 5% or less (almost no effect))
herbicidal effect grade, J: blackgrass ([7]; 320 g/ha): 3 (Herbicidal rate of 40% or more and less than 70%)
Herbicidal effect on B: Japanese bulrush (grade 0-5) [8]: 2 (Herbicidal rate of 20% or more and less than 40%)
herbicidal effect grade, O: lambsquarters ([9]; 320 g/ha): 3 (Herbicidal rate of 40% or more and less than 70%)
herbicidal effect rating, F: southern crabgrass [10, 31]: 0 (Herbicidal rate of 5% or less (almost no effect))
herbicidal effect rating, L: windgrass [11, 31]: 3 (Herbicidal rate of 40% or more and less than 70%)
herbicidal effect grade, K: Italian ryegrass ([12]; 320 g/ha): 2 (Herbicidal rate of 20% or more and less than 40%)
herbicidal effect grade, G: green foxtail ([13]; 320 g/ha): 2 (Herbicidal rate of 20% or more and less than 40%)
herbicidal effect rating, N: redroot pigweed [14, 31]: 0 (Herbicidal rate of 5% or less (almost no effect))
Herbicidal effect on A: late watergrass (grade 0-5) [15]: 3 (Herbicidal rate of 40% or more and less than 70%)
herbicidal effect rating, H: barnyard grass [16, 31]: 3 (Herbicidal rate of 40% or more and less than 70%)
herbicidal effect grade, M: velvetleaf ([17]; 320 g/ha): 2 (Herbicidal rate of 20% or more and less than 40%)
herbicidal effect rating, R: persian speedwell [18, 31]: 0 (Herbicidal rate of 5% or less (almost no effect))
herbicidal effect grade, P: chickweed ([19]; 320 g/ha): 5 (Herbicidal rate of 90% or more (almost completely withered))
herbicidal effect grade, H: barnyard grass ([20]; 320 g/ha): 3 (Herbicidal rate of 40% or more and less than 70%)
herbicidal effect on E (rice flat sedge), rating 0-5 [21]: 5 (Herbicidal rate of 90% or more (almost completely withered))
herbicidal effect grade, R: persian speedwell ([22]; 320 g/ha): 2 (Herbicidal rate of 20% or more and less than 40%)
herbicidal effect on D (Chinese sprangletop), rating 0-5 [23]: 1 (Herbicidal rate of 5% or more and less than 20%)
herbicidal effect grade, F: southern crabgrass ([24]; 320 g/ha): 0 (Herbicidal rate of 5% or less (almost no effect))
herbicidal effect rating, K: Italian ryegrass [25, 31]: 1 (Herbicidal rate of 5% or more and less than 20%)
herbicidal effect rating, P: chickweed [26, 31]: 0 (Herbicidal rate of 5% or less (almost no effect))
herbicidal effect grade, N: redroot pigweed ([27]; 320 g/ha): 3 (Herbicidal rate of 40% or more and less than 70%)
herbicidal effect rating, G: green foxtail [28, 31]: 3 (Herbicidal rate of 40% or more and less than 70%)
herbicidal effect grade, L: windgrass ([29]; 320 g/ha): 4 (Herbicidal rate of 70% or more and less than 90%)
herbicidal effect rating, M: velvetleaf [30, 31]: 0 (Herbicidal rate of 5% or less (almost no effect))

Cc1nn(C)c(=O)c(-c2c(-c3ccc(C(C)C)cc3)sc3ccccc23)c1O [1-125]
herbicidal effect on H (barnyard grass), rating 0-5 [1]: 5 (Herbicidal rate of 90% or more (almost completely withered))
Herbicidal effect on C: oval-leafed pondweed (grade 0-5) [2]: 0 (Herbicidal rate of 5% or less (almost no effect))
J: blackgrass, herbicidal effect rating ([3]; AAH 320 g/ha): 0 (Herbicidal rate of 5% or less (almost no effect))
I: wild oat, herbicidal effect ([4]; AAH 320 g/ha): 0 (Herbicidal rate of 5% or less (almost no effect))
O: lambsquarters, herbicidal effect rating ([5]; AAH 320 g/ha): 5 (Herbicidal rate of 90% or more (almost completely withered))
I: wild oat, herbicidal effect rating ([6]; AAH 320 g/ha): 0 (Herbicidal rate of 5% or less (almost no effect))
J: blackgrass, herbicidal effect ([7]; AAH 320 g/ha): 2 (Herbicidal rate of 20% or more and less than 40%)
Herbicidal effect on B: Japanese bulrush (grade 0-5) [8]: 0 (Herbicidal rate of 5% or less (almost no effect))
O: lambsquarters, herbicidal effect ([9]; AAH 320 g/ha): 5 (Herbicidal rate of 90% or more (almost completely withered))
F: southern crabgrass, herbicidal effect rating ([10]; AAH 320 g/ha): 1 (Herbicidal rate of 5% or more and less than 20%)
L: windgrass, herbicidal effect rating ([11]; AAH 320 g/ha): 0 (Herbicidal rate of 5% or less (almost no effect))
K: Italian ryegrass, herbicidal effect ([12]; AAH 320 g/ha): 5 (Herbicidal rate of 90% or more (almost completely withered))
G: green foxtail, herbicidal effect ([13]; AAH 320 g/ha): 5 (Herbicidal rate of 90% or more (almost completely withered))
N: redroot pigweed, herbicidal effect rating ([14]; AAH 320 g/ha): 5 (Herbicidal rate of 90% or more (almost completely withered))
Herbicidal effect on A: late watergrass (grade 0-5) [15]: 3 (Herbicidal rate of 40% or more and less than 70%)
H: barnyard grass, herbicidal effect rating ([16]; AAH 320 g/ha): 3 (Herbicidal rate of 40% or more and less than 70%)
M: velvetleaf, herbicidal effect ([17]; AAH 320 g/ha): 5 (Herbicidal rate of 90% or more (almost completely withered))
R: persian speedwell, herbicidal effect rating ([18]; AAH 320 g/ha): 5 (Herbicidal rate of 90% or more (almost completely withered))
P: chickweed, herbicidal effect ([19]; AAH 320 g/ha): 5 (Herbicidal rate of 90% or more (almost completely withered))
H: barnyard grass, herbicidal effect ([20]; AAH 320 g/ha): 5 (Herbicidal rate of 90% or more (almost completely withered))
herbicidal effect on E (rice flat sedge), rating 0-5 [21]: 5 (Herbicidal rate of 90% or more (almost completely withered))
R: persian speedwell, herbicidal effect ([22]; AAH 320 g/ha): 5 (Herbicidal rate of 90% or more (almost completely withered))
herbicidal effect on D (Chinese sprangletop), rating 0-5 [23]: 4 (Herbicidal rate of 70% or more and less than 90%)
F: southern crabgrass, herbicidal effect ([24]; AAH 320 g/ha): 3 (Herbicidal rate of 40% or more and less than 70%)
K: Italian ryegrass, herbicidal effect rating ([25]; AAH 320 g/ha): 5 (Herbicidal rate of 90% or more (almost completely withered))
P: chickweed, herbicidal effect rating ([26]; AAH 320 g/ha): 1 (Herbicidal rate of 5% or more and less than 20%)
N: redroot pigweed, herbicidal effect ([27]; AAH 320 g/ha): 5 (Herbicidal rate of 90% or more (almost completely withered))
G: green foxtail, herbicidal effect rating ([28]; AAH 320 g/ha): 3 (Herbicidal rate of 40% or more and less than 70%)
L: windgrass, herbicidal effect ([29]; AAH 320 g/ha): 5 (Herbicidal rate of 90% or more (almost completely withered))
M: velvetleaf, herbicidal effect rating ([30]; AAH 320 g/ha): 1 (Herbicidal rate of 5% or more and less than 20%)
